Measured values taken from patent US7902373B2 (Pfizer Inc, priority 2006, dated 2011).

target: human recombinant H-PGDS (Homo sapiens, UniProt O60760); assay: Fluorescence intensity h-PGDS TBA enzyme assay; format: biochemical; details: Examples up to 622 (and 3a, 3b)
Sequence (O60760 whole entry): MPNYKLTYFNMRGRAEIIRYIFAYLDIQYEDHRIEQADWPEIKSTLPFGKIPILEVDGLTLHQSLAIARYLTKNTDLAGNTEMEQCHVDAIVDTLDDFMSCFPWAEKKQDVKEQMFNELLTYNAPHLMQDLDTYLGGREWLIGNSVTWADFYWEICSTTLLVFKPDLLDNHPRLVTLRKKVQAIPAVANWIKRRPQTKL

SMILES	IC50
O=C(NC1CCN(CC2CCOC2)CC1)c1ccc(-c2cccc(F)c2)nc1 (stereo not drawn) [Example 350, 6-(3-Fluorophenyl)-N-[1-(tetrahydrofuran-3-ylmethyl)piperidin-4-yl]nicotinamide]	0.247 nM
Cc1cc(CN2CCC(NC(=O)c3ccc(-c4cccc(F)c4)nc3)CC2)no1 [Example 351, 6-(3-Fluorophenyl)-N-{1-[(5-methylisoxazol-3-yl)methyl]piperidin-4-yl}nicotinamide]	0.531 nM
Cn1nccc1CN1CCC(NC(=O)c2ccc(-c3cccc(F)c3)nc2)CC1 [Example 352, 6-(3-Fluorophenyl)-N-{1-[(1-methyl-1H-pyrazol-5-yl)methyl]piperidin-4-yl}nicotinamide]	0.625 nM
COc1ccc(CN2CCC(NC(=O)c3ccc(-c4cccc(F)c4)nc3)CC2)cn1 [Example 353, 6-(3-Fluorophenyl)-N-{1-[(6-methoxypyridin-3-yl)methyl]piperidin-4-yl}nicotinamide]	0.959 nM
Cc1ccc(CN2CCC(NC(=O)c3ccc(-c4cccc(F)c4)nc3)CC2)cn1 [Example 354, 6-(3-Fluorophenyl)-N-{1-[(6-methylpyridin-3-yl)methyl]piperidin-4-yl}nicotinamide]	2.92 nM
Cc1cc(CN2CCC(NC(=O)c3ccc(-c4cccc(F)c4)nc3)CC2)ccn1 [Example 355, 6-(3-Fluorophenyl)-N-{1-[(2-methylpyridin-4-yl)methyl]piperidin-4-yl}nicotinamide]	0.513 nM
Cc1c(CN2CCC(NC(=O)c3ccc(-c4cccc(F)c4)nc3)CC2)cnn1-c1ccccc1 [Example 356, 6-(3-Fluorophenyl)-N-{1-[(5-methyl-1-phenyl-1H-pyrazol-4-yl)methyl]piperidin-4-yl}nicotinamide]	2 nM
Cc1nc(-c2ccccc2)ncc1CN1CCC(NC(=O)c2ccc(-c3cccc(F)c3)nc2)CC1 [Example 357, 6-(3-Fluorophenyl)-N-{1-[(4-methyl-2-phenylpyrimidin-5-yl)methyl]piperidin-4-yl}nicotinamide]	6.66 nM
O=C(NC1CCN(Cc2ccc(Oc3ccccc3)nc2)CC1)c1ccc(-c2cccc(F)c2)nc1 [Example 358, 6-(3-Fluorophenyl)-N-{1-[(6-phenoxypyridin-3-yl)methyl]piperidin-4-yl}nicotinamide]	1.72 nM
O=C(NC1CCN(Cc2ccno2)CC1)c1ccc(-c2cccc(F)c2)nc1 [Example 359, 6-(3-Fluorophenyl)-N-[1-(isoxazol-5-ylmethyl)piperidin-4-yl]nicotinamide]	0.443 nM
CCC(C)CCN1CCC(NC(=O)c2ccc(-c3cccc(F)c3)nc2)CC1 (stereo not drawn) [Example 360, 6-(3-Fluorophenyl)-N-[1-(3-methylpentyl)piperidin-4-yl]nicotinamide]	2.76 nM
Cc1nn(C(C)C)c(C)c1CN1CCC(NC(=O)c2ccc(-c3cccc(F)c3)nc2)CC1 [Example 361, 6-(3-Fluorophenyl)-N-{1-[(1-isopropyl-3,5-dimethyl-1H-pyrazol-4-yl)methyl]piperidin-4-yl}nicotinamide]	1.35 nM
Cc1nn(-c2ccc(F)cc2)c(C)c1CN1CCC(NC(=O)c2ccc(-c3cccc(F)c3)nc2)CC1 [Example 362, 6-(3-Fluorophenyl)-N-(1-{[1-(4-fluorophenyl)-3,5-dimethyl-1H-pyrazol-4-yl]methyl}piperidin-4-yl)nicotinamide]	1.05 nM
O=C(NC1CCN(Cc2ccon2)CC1)c1ccc(-c2cccc(F)c2)nc1 [Example 363, 6-(3-Fluorophenyl)-N-[1-(isoxazol-3-ylmethyl)piperidin-4-yl]nicotinamide]	0.299 nM
COc1ccc(CN2CCC(NC(=O)c3ccc(-c4cccc(F)c4)nc3)CC2)cc1CN(C)C [Example 364, N-(1-{3-[(Dimethylamino)methyl]-4-methoxybenzyl}piperidin-4-yl)-6-(3-fluorophenyl)nicotinamide]	4.03 nM
COc1ccc(-n2ccnc2CN2CCC(NC(=O)c3ccc(-c4cccc(F)c4)nc3)CC2)cc1 [Example 365, 6-(3-Fluorophenyl)-N-(1-{[1-(4-methoxyphenyl)-1H-imidazol-2-yl]methyl}piperidin-4-yl)nicotinamide]	0.13 nM
CC(C)c1cc(CN2CCC(NC(=O)c3ccc(-c4cccc(F)c4)nc3)CC2)n[nH]1 [Example 366]	2.42 nM
O=C(NC1CCN(Cc2cccc(-n3cccn3)c2)CC1)c1ccc(-c2cccc(F)c2)nc1 [Example 367, 6-(3-Fluorophenyl)-N-{1-[3-(1H-pyrazol-1-yl)benzyl]piperidin-4-yl}nicotinamide]	0.707 nM
Nc1ncc(CN2CCC(NC(=O)c3ccc(-c4cccc(F)c4)nc3)CC2)cn1 [Example 368, N-{1-[(2-Aminopyrimidin-5-yl)methyl]piperidin-4-yl}-6-(3-fluorophenyl)nicotinamide]	2.03 nM
Cc1cc(C)n(-c2cccc(CN3CCC(NC(=O)c4ccc(-c5cccc(F)c5)nc4)CC3)c2)n1 [Example 369, N-{1-[3-(3,5-Dimethyl-1H-pyrazol-1-yl)benzyl]piperidin-4-yl}-6-(3-fluorophenyl)nicotinamide]	1.36 nM

SMILES	IC50
O=C(NC1CCN(Cc2cc(F)cc3c2OCOC3)CC1)c1ccc(-c2cccc(F)c2)nc1 [Example 370, N-{1-[(6-Fluoro-4H-1,3-benzodioxin-8-yl)methyl]piperidin-4-yl}-6-(3-fluorophenyl)nicotinamide]	0.456 nM
O=C(NC1CCN(Cc2cccc3nsnc23)CC1)c1ccc(-c2cccc(F)c2)nc1 [Example 371, N-[1-(2,1,3-Benzothiadiazol-4-ylmethyl)piperidin-4-yl]-6-(3-fluorophenyl)nicotinamide]	0.438 nM
Cc1cc(CN2CCC(NC(=O)c3ccc(-c4cccc(F)c4)nc3)CC2)n(C)n1 [Example 372, N-{1-[(1,3-Dimethyl-1H-pyrazol-5-yl)methyl]piperidin-4-yl}-6-(3-fluorophenyl)nicotinamide]	0.981 nM
O=C(NC1CCN(Cc2csc(-c3ccccc3)n2)CC1)c1ccc(-c2cccc(F)c2)nc1 [Example 373, 6-(3-Fluorophenyl)-N-{1-[(2-phenyl-1,3-thiazol-4-yl)methyl]piperidin-4-yl}nicotinamide]	2.36 nM
Cn1cnc(CN2CCC(NC(=O)c3ccc(-c4cccc(F)c4)nc3)CC2)c1 [Example 374, 6-(3-Fluorophenyl)-N-{1-[(1-methyl-1H-imidazol-4-yl)methyl]piperidin-4-yl}nicotinamide]	2.99 nM
O=C(NC1CCN(Cc2cccc(-n3cccn3)n2)CC1)c1ccc(-c2cccc(F)c2)nc1 [Example 375, 6-(3-Fluorophenyl)-N-(1-{[6-(1H-pyrazol-1-yl)pyridin-2-yl]methyl}piperidin-4-yl)nicotinamide]	0.667 nM
Cn1ccnc1-c1ccc(CN2CCC(NC(=O)c3ccc(-c4cccc(F)c4)nc3)CC2)cc1 [Example 376, 6-(3-Fluorophenyl)-N-{1-[4-(1-methyl-1H-imidazol-2-yl)benzyl]piperidin-4-yl}nicotinamide]	0.876 nM
O=C(NC1CCN(Cc2cccn3c(Br)cnc23)CC1)c1ccc(-c2cccc(F)c2)nc1 [Example 377, N-{1-[(3-Bromoimidazo[1,2-a]pyridin-8-yl)methyl]piperidin-4-yl}-6-(3-fluorophenyl)nicotinamide]	0.491 nM
O=C(NC1CCN(Cc2ccc(=O)[nH]c2)CC1)c1ccc(-c2cccc(F)c2)nc1 [Example 378, 6-(3-Fluorophenyl)-N-{1-[(6-oxo-16-dihydropyridin-3-yl)methyl]piperidin-4-yl}nicotinamide]	1.41 nM
CCOC(=O)c1cn2c(CN3CCC(NC(=O)c4ccc(-c5cccc(F)c5)nc4)CC3)cccc2n1 [Example 379, Ethyl 5-{[4-({[6-(3-fluorophenyl)pyridin-3-yl]carbonyl}amino)piperidin-1-yl]methyl}imidazo[1,2-a]pyridine-2-carboxylate]	1.43 nM
Cc1ccc(-c2cccc(CN3CCC(NC(=O)c4ccc(-c5cccc(F)c5)nc4)CC3)c2)c(N)n1 [Example 380, N-{1-[3-(2-Amino-6-methylpyridin-3-yl)benzyl]piperidin-4-yl}-6-(3-fluorophenyl)nicotinamide]	1.25 nM
O=C(NC1CCN(Cc2cccc(-c3cncnc3)c2)CC1)c1ccc(-c2cccc(F)c2)nc1 [Example 381, 6-(3-Fluorophenyl)-N-[1-(3-pyrimidin-5-ylbenzyl)piperidin-4-yl]nicotinamide]	0.0854 nM
O=C(NC1CCN(Cc2cn[nH]c2-c2ccccc2Cl)CC1)c1ccc(-c2cccc(F)c2)nc1 [Example 382, N-(1-{[5-(2-Chlorophenyl)-1H-pyrazol-4-yl]methyl}piperidin-4-yl)-6-(3-fluorophenyl)nicotinamide]	0.681 nM
Cc1ccn2c(CN3CCC(NC(=O)c4ccc(-c5cccc(F)c5)nc4)CC3)c(C)nc2c1 [Example 383, N-{1-[(2,7-Dimethylimidazo[1,2,a]pyridin-3-yl)methyl]piperidin-4-yl}-6-(3-fluorophenyl)nicotinamide]	1.25 nM
O=C(NC1CCN(Cc2ccn[nH]2)CC1)c1ccc(-c2cccc(F)c2)nc1 [Example 384, 6-(3-Fluorophenyl)-N-[1-(1H-pyrazol-5-ylmethyl)piperidin-4-yl]nicotinamide]	0.959 nM
N#CC1(c2ccc(CN3CCC(NC(=O)c4ccc(-c5cccc(F)c5)nc4)CC3)cc2)CC=CC1 [Example 385, N-{1-[4-(1-Cyanocyclopent-3-en-1-yl)benzyl]piperidin-4-yl}-6-(3-fluorophenyl)nicotinamide]	11.7 nM
O=C(NC1CCN(Cc2cnn3c2CCCC3)CC1)c1ccc(-c2cccc(F)c2)nc1 [Example 386, 6-(3-Fluorophenyl)-N-[1-(4,5,6,7-tetrahydropyrazolo[1,5-a]pyridin-3-ylmethyl)piperidin-4-yl]nicotinamide]	1.2 nM
O=C(NC1CCN(Cc2cnn3c2CCCCC3)CC1)c1ccc(-c2cccc(F)c2)nc1 [Example 387, 6-(3-Fluorophenyl)-N-[1-(5,6,7,8-tetrahydro-4H-pyrazolo[1,5-a]azepin-3-ylmethyl)piperidin-4-yl]nicotinamide]	1.85 nM
CCc1noc(COc2cccc(CN3CCC(NC(=O)c4ccc(-c5cccc(F)c5)nc4)CC3)c2)n1 [Example 388, N-(1-{3-[(3-Ethyl-1,2,4-oxadiazol-5-yl)methoxy]benzyl}piperidin-4-yl)-6-(3-fluorophenyl)nicotinamide]	0.951 nM
